{"source": "patent US11590110B2", "about": "“Compositions and methods for reactivating latent immunodeficiency virus using a GSK-3 inhibitor” (priority 2017, dated 2023)", "key": {"[1]": {"test_system": "primary CD4+ T cells isolated from fresh human tonsils", "test": "CD69 transcripts in primary CD4+ T cells from fresh human tonsils", "assay_type": "cell-based", "conditions": "2-day treatment"}, "[2]": {"test_system": "latent HIV-1 in blood CD4+ T cells from infected individuals on suppressive ART", "assay_type": "cell-based"}, "[3]": {"test_system": "patient-derived CD4+ T cells", "test": "Example 2: viability of patient-derived CD4+ T cells (Zombie Violet, flow cytometry)", "assay_type": "cell-based, human", "conditions": "48 h incubation", "experimental": "Following treatment with Tideglusib, the CD4^+ T cells were spun down and stained with the cell-death marker Zombie Violet (BioLegend). Briefly, cells were harvested 48 hours after LRA treatment, incubated with the Zombie dye for 15 minutes at room temperature, than washed and fixed with 1% PFA for 30 minutes; then washed again and analyzed via flow cytometer. Percentage of live (Zombie negative (−)) T Cells (CD3+) was normalized to the DMSO-treated control (DMSO or “untreated”=1)."}, "CD4+ T cells [4]": {"test_system": "CD4+ T cells", "test": "Example 5: basal and compensatory glycolysis, Seahorse glycolytic rate assay", "assay_type": "cell-based, human", "conditions": "1 μM; 24 hours", "experimental": "ECAR was determined using the Seahorse SF Glycolytic Rate Assay Kit (Agilent, 103344-100) and a Seahorse XF96 Extracellular Flux Analyzer (Seahorse Bioscience). Resting (2×10^5 per well) were seeded onto Cell-Tak-coated wells (354240; Corning) in buffered Seahorse XF RPMI medium (Agilent, 103576-100) supplemented with 10 mM glucose, 2 mM L-glutamine, 1 mM pyruvate and 5 mM HEPES (pH 7.4). Measurements were obtained under basal conditions and after adding 0.5 μM rotenone/antimycin A (103015-100; Seahorse Bioscience), and 2-deoxy-d-glucose (2-DG) at a final well concentration of 50 mM (Agilent Technologies). Basal glycolysis and Proton Efflux Rate (PER) were calculated according to. Lactate measurements were detected using the Cayman L-Lactate Assay Kit (Cayman Chemical, 70010) In brief, 24 hours post treatment, supernatant from 200.000 primary resting and activated CD4^+ T cells was harvested and measured according to the manufacturer's recommendation."}, "patient CD4+ T cells": {"test_system": "patient CD4+ T cells", "test": "Example 7: viability of patient CD4+ T cells, Cell-titer blue", "conditions": "48 h"}, "NK cells": {"test_system": "NK cells", "test": "Example 5: NK cell viability and cytotoxic effector functions", "assay_type": "cell-based, human", "experimental": "Density centrifugation using a Ficoll-Hypaqua gradient was performed to purify PBMCs from continuous-flow centrifugation leukapheresis product. Subsequently, cells were plated in 96-well U-bottom plated in complete RPMI, which was supplemented with 10 ng/ml recombinant IL-15 (R&D systems), treated with LRAs or vehicle controls (DMSO) and incubated at 37° C., 5% CO2 for 48 h. To assay NK cell functionality, cells were analyzed by flow cytometry. Briefly, 1×10^6 cells/200 ul were stained with FITC anti-CD107 antibodies (1:50, BD Biosciences), mixed with 1×10^5 K562 cells and incubated at 37° C., 5% CO2 for 1 h. Then, in order to enhance intracellular cytokine staining, protein transport was blocked with Brefeldin A (Sigma-Aldrich) and golgi stop (BD Biosciences) according to the manufacturer instructions and the cells were incubated at 37° C., 5% CO2 for another 5 h. Afterwards, cells were spun down (5 min, 330×g, RT), the supernatant was removed and the cells were stained using Zombie violet (1:50, Biolegend) according to the manufacturer protocol. Subsequently, cells were stained for surface proteins staining with the following antibodies: APC/Cy7 anti CD3 (1:100, Biolegend), APC anti CD14 (1:100, Biolegend), APC anti CD19 (1:100, Biolegend), PE/Cy7 anti CD56 (1:100, BD Biosciences), Alexa Fluor 700 anti CD16 (1:100, Biolegend), PE anti CD7 (1:50, Thermo Fisher Scientific) for 15 min at room temperature. Next, cells were permeabilized and fixed using the Foxp3/Transcription Factor Fixation/Permeabilization Concentrate and Diluent kit (eBioscience) and stained intracellularly with PerCP/Cy5 anti IFN-γ (1:50, BD Bioscience) in FOXP3 perm/wash buffer for 1 h at 4° C. Finally, cells were washed and fixed in 1% paraformaldehyde/PBS, and subjected to flow cytometry analysis on a LSRII (BD Biosciences). Data were obtained using FlowJo software (Treestar). Samples were gated for singlets, live, CD3 negative, CD14/CD19 negative and CD7 positive cells as previously described (York, Milush). CD16high/CD56dim, CD16dim/CD56high cells were considered for analysis of IFN-γ and CD107a positivity. All gates were defined, based on fluorescence minus one (FMO) samples."}, "NF-κB (p65)": {"test_system": "NF-κB (p65)", "test": "Example 5: NF-κB (p65) binding with target DNA sequences, ELISA", "assay_type": "cell-based, human", "conditions": "1 μM", "protocol": "To determine the specific NF-κB p65 DNA binding activity of treated CD4^+ T cells, an aliquot of the same nuclear extracts used for the p65/TBP western blots were submitted to the Transcription Factor Assay kit (Abcam, catalogue no. ab133112). Following the manufactures instructions sequentially, nuclear extracts were incubated in the TFA 96 well plate coated with double strand DNA NF-κB oligos. The wells were washed then incubated with primary anti-p65 antibody that is then detected by incubation with HRP conjugated secondary antibody. Developing reagents are added and absorbance is read at 450 nm. The level of absorbance indicates the DNA binding activity. For each donor experiment, binding specificity controls include a NF-κB competitor dsDNA control well and a non-specific binding control well. The assay was performed on 3 different donor samples."}, "[5]": {"test_system": "AKT/mTOR pathway in CD4+ T cells", "test": "Example 5: RNA and protein expression profiling with nanoString", "assay_type": "cell-based, human", "conditions": "1 μM", "experimental": "Quantitative RNA and protein expression data were generated using the nCounter Vantage 3D Solid Tumor Assay and the nCounter SPRINT profiler (NanoString Technologies), comprising 770 RNA and 30 protein targets including positive and negative controls. 1-3 million negatively selected primary CD4^+ T cells purified from HIV-positive donors on suppressive ART, as described above, were treated with 1 μM tideglusib or left untreated (DMSO control). […]. For RNA samples, an additional RNA purification step (Qiagen miRNeasy Mini Kit) was necessary to ensure an appropriate sample input for the nCounter assay. A total of at least 30 ng RNA was used for each sample. Otherwise, samples were processed according to the manufacturer's instructions. RNA and protein expression values were normalized and analyzed using the nSolver Analysis Software 4.0 and the add-on Advanced Analysis Software 2.0.115 (NanoString Technologies). Normalization genes for each sample were automatically selected by the software based on the geNorm algorithm (ref vandesompele). Biological replicates were then grouped according to treatment and the differential expression of each analyte-type (RNA or protein target) was determined in comparison to the untreated condition by considering inter-donor differences as confounding variables. Based on the differential expression of each gene, pre-defined gene sets by nanoString, representing different pathways included in this assay, were analyzed by calculating global significance scores for each gene set within each treatment, as follows: […]"}, "CD4+ T cells [6]": {"test_system": "CD4+ T cells", "test": "Example 5: cytokines release assay (V-PLEX pro-inflammatory panel)", "assay_type": "cell-based, human", "conditions": "48 hours; culture supernatant of CD4+ T cells", "experimental": "Supernatant was collected from the treated cell cultures described above and stored at −80° C. for later analysis. Supernatant cytokine levels were determined using a V-PLEX Proinflammatory Panel 1 (human) Kit (#K15049D-1) and a V-PLEX IL-17A Gen. B (human) (#K151WMD) from Meso Scale Discovery, following the manufacturer's protocol. The assay was done on undiluted supernatant samples in order to increase the sensitivity of the assay."}, "[7]": {"conditions": "pre-treatment 1 μM 48 hours, then K562 cells"}}, "data": [{"compound": "O=c1sn(-c2cccc3ccccc23)c(=O)n1Cc1ccccc1", "note": "[Tideglusib, 4-benzyl-2-(naphthalen-1-yl)-1,2,4-thiadiazolidine-3,5-dione]", "values": [{"measurement": "expression of CD69 transcripts", "setting": "[1]", "result": "reduces expression of CD69 transcripts"}, {"measurement": "release of virus-associated HIV-1 mRNA relative to bryostatin-1, by median values", "setting": "[2]; 1 μM tideglusib vs 10 nM bryostatin-1", "result": "twofold more"}, {"measurement": "virus-associated HIV-1 mRNA, median value", "setting": "[2]; 1 μM, 48 hours, relative to untreated control", "result": 10.3, "unit": "fold"}, {"measurement": "percentage of viable CD4+ T cells vs untreated control", "setting": "[3]", "result": "Substantially all of the cells remained viable"}, {"measurement": "basal glycolysis, mean value", "setting": "CD4+ T cells [4]", "result": 17.43, "unit": "pmol/min"}, {"measurement": "compensatory glycolysis, response to Rot/AA", "setting": "CD4+ T cells [4]", "result": "did not result in an increase"}, {"measurement": "toxicity based on cell-titer blue testing", "setting": "patient CD4+ T cells", "result": "Neither tideglusib nor SB216763 induced toxicity"}, {"measurement": "viability of NK cells", "setting": "NK cells; 48 hours", "result": "did not reduce viability"}, {"measurement": "IFN-γ production in NK cells", "setting": "NK cells; [7]", "result": "increase in IFN-γ production"}, {"measurement": "increase of surface expression of CD107a in NK cells", "setting": "NK cells; [7]", "result": "less marked"}, {"measurement": "p65/DNA binding", "setting": "NF-κB (p65)", "result": "time-dependent increase"}, {"measurement": "activation of the AKT/mTOR pathway (phosphorylation of GSK-3β, AKT and TSC2)", "setting": "[5]; 15 minutes post-treatment", "result": "non-significant activation"}, {"measurement": "activating phosphorylation of p70S6K on T389", "setting": "[5]; 1 hour", "result": "significant phosphorylation values"}, {"measurement": "inhibiting phosphorylation of GSK-3β on S9", "setting": "[5]; 1 hour", "result": "significant phosphorylation values"}, {"measurement": "inhibiting phosphorylation of TSC2 on T1426", "setting": "[5]; 6 hours", "result": "statistically-relevant phosphorylation"}, {"measurement": "phosphorylation of AKT on S473", "setting": "[5]; 6 hours", "result": "statistically-relevant phosphorylation"}, {"measurement": "overall transcriptome changes, pathways (700 transcripts)", "setting": "[5]; after 1 and 6 hours", "result": "activation of the mitogen-activated protein kinase (MAPK), PI3K, Ras, Wnt and TGFβ pathways and deactivation of the Hedgehog, Notch and Janus kinases (JAK) and signal transducer and activator of transcription proteins (STAT)-pathways"}, {"measurement": "production and release of pro-inflammatory cytokines", "setting": "CD4+ T cells [6]", "result": "does not induce T cell activation or cytokine production"}]}]}
